This passage reports IC50 results from US7858786B2, “Pyrimidines and pyrazines useful as modulators of ion channels” (Vertex Pharmaceuticals Incoropated, priority 2005, dated 2010).

For the experiment, the target named is NaV1.8 (Homo sapiens, UniProt Q9Y5Y9). Description: Activity against NaV 1.8 channel (NaV inhibition assay). Format: cell-based. The protocol:
Compounds of the invention are useful as antagonists of voltage-gated sodium ion channels. Antagonist properties of test compounds were assessed as follows. Cells expressing the NaV of interest were placed into microtiter plates. After an incubation period, the cells were stained with fluorescent dyes sensitive to the transmembrane potential. The test compounds were added to the microtiter plate. The cells were stimulated with either a chemical or electrical means to evoke a NaV dependent membrane potential change from unblocked channels, which was detected and measured with trans-membrane potential-sensitive dyes. Antagonists were detected as a decreased membrane potential response to the stimulus. The optical membrane potential assay utilized voltage-sensitive FRET sensors described by Gonzalez and Tsien (See, Gonzalez, J. E. and R. Y. Tsien (1995) “Voltage sensing by fluorescence resonance energy transfer in single cells” Biophys J 69(4):1272-80, and Gonzalez, J. E. and R. Y. Tsien (1997) “Improved indicators of cell membrane potential that use fluorescence resonance energy transfer” Chem Biol 4(4):269-77) in combination with instrumentation for measuring fluorescence changes such as the Voltage/Ion Probe Reader (VIPRO®) (See, Gonzalez, J. E., K. Oades, et al. (1999) “Cell-based assays and instrumentation for screening ion-channel targets” Drug Discov Today 4(9):431-439).
24 hours before the assay on VIPR, CHO cells endogenously expressing a NaV1.2 type voltage-gated NaV are seeded in 96-well poly-lysine coated plates at 60,000 cells per well. Other subtypes are performed in an analogous mode in a cell line expressing the NaV of interest.
The following is an example of how NaV1.3 inhibition activity is measured using the optical membrane potential method #2. Other subtypes are performed in an analogous mode in a cell line expressing the NaV of interest.
HEK293 cells stably expressing NaV1.3 are plated into 96-well microtiter plates. After an appropriate incubation period, the cells are stained with the voltage sensitive dyes CC2-DMPE/DiSBAC2(3) as follows.
Patch clamp electrophysiology was used to assess the efficacy and selectivity of sodium channel blockers in dorsal root ganglion neurons. Rat neurons were isolated from the dorsal root ganglions and maintained in culture for 2 to 10 days in the presence of NGF (50 ng/ml) (culture media consisted of NeurobasalA supplemented with B27, glutamine and antibiotics). Small diameter neurons (nociceptors, 8-12 μm in diameter) have been visually identified and probed with fine tip glass electrodes connected to an amplifier (Axon Instruments). The “voltage clamp” mode has been used to assess the compound's IC50 holding the cells at −60 mV. In addition, the “current clamp” mode has been employed to test the efficacy of the compounds in blocking action potential generation in response to current injections. The results of these experiments have contributed to the definition of the efficacy profile of the compounds.
TTX-resistant sodium currents were recorded from DRG somata using the whole-cell variation of the patch clamp technique. Recordings were made at room temperature (˜22° C.) with thick walled borosilicate glass electrodes (WPI; resistance 3-4 MΩ) using an Axopatch 200B amplifier (Axon Instruments). After establishing the whole-cell configuration, approximately 15 minutes were allowed for the pipette solution to equilibrate within the cell before beginning recording. Currents were lowpass filtered between 2-5 kHz and digitally sampled at 10 kHz. Series resistance was compensated 60-70% and was monitored continuously throughout the experiment. The liquid junction potential (−7 mV) between the intracellular pipette solution and the external recording solution was not accounted for in the data analysis. Test solutions were applied to the cells with a gravity driven fast perfusion system (SF-77; Warner Instruments). […]
One may read the IC50 as the concentration at which inhibition is half-maximal. Turning to `CC(C)COC(=O)NC1CCN(c2nccc(-c3ccccc3O)n2)CC1` [Compound 1, [1-[4-(2-hydroxyphenyl)pyrimidin-2-yl]-4-piperidyl]aminoformic acid isobutyl ester], the IC50 is above 15 µM.

Regarding `O=C(NC1CCN(c2ccnc(-c3ccccc3F)n2)CC1)[C@H]1CCCO1` [Compound 2, N-[1-[2-(2-fluorophenyl)pyrimidin-4-yl]-4-piperidyl]tetrahydrofuran-2-carboxamide], the IC50 was above 15 µM.

`CC(C)(C)OC(=O)NC1CCN(c2cncc(-c3ccccc3F)n2)CC1` [Compound 3, [1-[6-(2-fluorophenyl)pyrazin-2-yl]-4-piperidyl]aminoformic acid tert-butyl ester]: the IC50 is below 10 µM.

For `CC(C)COC(=O)N1CCN(c2cc(-c3ccccc3C(F)F)ncn2)CC1` [Compound 4, 4-[6-[2-(difluoromethyl)phenyl]pyrimidin-4-yl]piperazine-1-carboxylic acid isobutyl ester], the concentration for half-maximal inhibition (IC50) is above 15 µM.

Take `CC(C)C[C@@H](O)C(=O)N1CCN(c2nccc(-c3ccccc3C(F)F)n2)CC1` [Compound 6, 1-[4-[4-[2-(difluoromethyl)phenyl]pyrimidin-2-yl]piperazin-1-yl]-2-hydroxy-4-methyl-pentan-1-one]: the IC50 was in the range of 10 to 15 µM.

For the compound `CC(C)C(=O)N[C@@H]1CCN(c2cncc(-c3ccccc3F)n2)C1` [Compound 7, N-[1-[6-(2-fluorophenyl)pyrazin-2-yl]pyrrolidin-3-yl]-2-methyl-propanamide], the IC50 was above 15 µM.

`CC(C)(C)OC(=O)N[C@@H]1CCN(c2cncc(-c3ccccc3F)n2)C1` [Compound 8, [1-[6-(2-fluorophenyl)pyrazin-2-yl]pyrrolidin-3-yl]aminoformic acid tert-butyl ester]: the IC50 was 10 to 15 µM.

With `COCCOC(=O)NC1CCN(c2cncc(-c3ccccc3F)n2)CC1` [Compound 9, [1-[6-(2-fluorophenyl)pyrazin-2-yl]-4-piperidyl]aminoformic acid 2-methoxyethyl ester], the IC50 is below 10 µM.

As to `CC(C)COC(=O)N1CCN(c2ccnc(-c3ccccc3F)n2)CC1` [Compound 10, 4-[2-(2-fluorophenyl)pyrimidin-4-yl]piperazine-1-carboxylic acid isobutyl ester], the IC50 was above 15 µM.

For the compound `COCCOC(=O)N[C@H]1CCN(c2cncc(-c3ccccc3C(F)F)n2)C1` [Compound 11, [1-[6-[2-(difluoromethyl)phenyl]pyrazin-2-yl]pyrrolidin-3-yl]aminoformic acid 2-methoxyethyl ester], the IC50 was above 15 µM.

As for `CC(C)C[C@@H](O)C(=O)N1CCN(c2ccnc(-c3ccccc3O)n2)CC1` [Compound 12, 2-hydroxy-1-[4-[2-(2-hydroxyphenyl)pyrimidin-4-yl]piperazin-1-yl]-4-methyl-pentan-1-one], the half-inhibitory concentration (IC50) lay in the range of 10 to 15 µM.

In the case of `CC(C)COC(=O)NC1CCN(c2ccnc(-c3ccccc3C(F)F)n2)CC1` [Compound 13, [1-[2-[2-(difluoromethyl)phenyl]pyrimidin-4-yl]-4-piperidyl]aminoformic acid isobutyl ester], the IC50 was below 10 µM.

In the case of `CC(C)C(=O)N[C@@H]1CCN(c2cncc(-c3ccccc3O)n2)C1` [Compound 14, N-[1-[6-(2-hydroxyphenyl)pyrazin-2-yl]pyrrolidin-3-yl]-2-methyl-propanamide], the IC50 was above 15 µM.

With `CC(C)COC(=O)N1CCN(c2cncc(-c3ccccc3C(F)F)n2)CC1` [Compound 15, 4-[6-[2-(difluoromethyl)phenyl]pyrazin-2-yl]piperazine-1-carboxylic acid isobutyl ester], the IC50 is 10 to 15 µM.

For the compound `COCCOC(=O)N[C@@H]1CCN(c2cncc(-c3ccccc3O)n2)C1` [Compound 16, [1-[6-(2-hydroxyphenyl)pyrazin-2-yl]pyrrolidin-3-yl]aminoformic acid 2-methoxyethyl ester], the IC50 is above 15 µM.

Turning to `CC(C)COC(=O)NC1CCN(c2cncc(-c3ccccc3O)n2)CC1` [Compound 18, [1-[6-(2-hydroxyphenyl)pyrazin-2-yl]-4-piperidyl]aminoformic acid isobutyl ester], the IC50 is below 10 µM.

In the case of `COCCOC(=O)NC1CCN(c2cncc(-c3ccccc3C(F)F)n2)CC1` [Compound 19, [1-[6-[2-(difluoromethyl)phenyl]pyrazin-2-yl]-4-piperidyl]aminoformic acid 2-methoxyethyl ester], the IC50 was below 10 µM.

Take `CC(C)COC(=O)N1CCN(c2cc(-c3ccccc3O)ncn2)CC1` [Compound 20, 4-[6-(2-hydroxyphenyl)pyrimidin-4-yl]piperazine-1-carboxylic acid isobutyl ester]: the IC50 lay in the range of 10 to 15 µM.

On to `CC(C)C[C@@H](O)C(=O)N1CCN(c2ccnc(-c3ccccc3C(F)F)n2)CC1` [Compound 21, 1-[4-[2-[2-(difluoromethyl)phenyl]pyrimidin-4-yl]piperazin-1-yl]-2-hydroxy-4-methyl-pentan-1-one], for which the IC50 was above 15 µM.

Turning to `CC(C)OC(=O)N[C@@H]1CCN(c2cncc(-c3ccccc3F)n2)C1` [Compound 22, [1-[6-(2-fluorophenyl)pyrazin-2-yl]pyrrolidin-3-yl]aminoformic acid isopropyl ester], the IC50 was above 15 µM.

Turning to `CC(C)COC(=O)N1CCN(c2cc(-c3ccccc3F)ncn2)CC1` [Compound 23, 4-[6-(2-fluorophenyl)pyrimidin-4-yl]piperazine-1-carboxylic acid isobutyl ester], the concentration for half-maximal inhibition (IC50) was above 15 µM.

For the compound `CC(C)COC(=O)N1CCN(c2nccc(-c3ccccc3C(F)F)n2)CC1` [Compound 24, 4-[4-[2-(difluoromethyl)phenyl]pyrimidin-2-yl]piperazine-1-carboxylic acid isobutyl ester], the IC50 lay in the range of 10 to 15 µM.

`CC(C)COC(=O)N1CCN(c2nccc(-c3ccccc3O)n2)CC1` [Compound 25, 4-[4-(2-hydroxyphenyl)pyrimidin-2-yl]piperazine-1-carboxylic acid isobutyl ester]: the IC50 was below 10 µM.

Consider `CC(C)C[C@@H](O)C(=O)N1CCN(c2cc(-c3ccccc3O)ncn2)CC1` [Compound 26, 2-hydroxy-1-[4-[6-(2-hydroxyphenyl)pyrimidin-4-yl]piperazin-1-yl]-4-methyl-pentan-1-one], for which the IC50 was above 15 µM.

`COCCOC(=O)N[C@@H]1CCN(c2cncc(-c3ccccc3F)n2)C1` [Compound 27, [1-[6-(2-fluorophenyl)pyrazin-2-yl]pyrrolidin-3-yl]aminoformic acid 2-methoxyethyl ester]: the IC50 is above 15 µM.

As for `CC(C)C(=O)N[C@@H]1CCN(c2cncc(-c3ccccc3C(F)F)n2)C1` [Compound 28, N-[1-[6-[2-(difluoromethyl)phenyl]pyrazin-2-yl]pyrrolidin-3-yl]-2-methyl-propanamide], the IC50 was above 15 µM.

In the case of `O=C(NC1CCN(c2ccnc(-c3ccccc3O)n2)CC1)[C@H]1CCCO1` [Compound 29, N-[1-[2-(2-hydroxyphenyl)pyrimidin-4-yl]-4-piperidyl]tetrahydrofuran-2-carboxamide], the concentration for half-maximal inhibition (IC50) was above 15 µM.

On to `CC(C)COC(=O)NC1CCN(c2nccc(-c3ccccc3C(F)F)n2)CC1` [Compound 31, [1-[4-[2-(difluoromethyl)phenyl]pyrimidin-2-yl]-4-piperidyl]aminoformic acid isobutyl ester], for which the IC50 was below 10 µM.

As for `CC(C)COC(=O)N1CCN(c2ccnc(-c3ccccc3C(F)F)n2)CC1` [Compound 32, 4-[2-[2-(difluoromethyl)phenyl]pyrimidin-4-yl]piperazine-1-carboxylic acid isobutyl ester], the IC50 is above 15 µM.

For the compound `CC(C)COC(=O)N1CCN(c2cncc(-c3ccccc3O)n2)CC1` [Compound 33, 4-[6-(2-hydroxyphenyl)pyrazin-2-yl]piperazine-1-carboxylic acid isobutyl ester], the IC50 is below 10 µM.
